Data on three compounds can be found in patent US20110312986A1, “Composition and Method for Treating Overactive Bladder” (ALLERGAN, INC., priority 2010, published 2011).

A short description of data set [1]: Neuropsychology testing: HVLT-R and BVMT-R, reliable change index (Example 1). Format: in vivo, human. The procedure: (§1) A single-center, single-blind, randomized, placebo-controlled, parallel group study was conducted to evaluate whether Trospium permeates across the human blood-brain barrier and whether Trospium could cause cognitive impairment.
For neuropsychology testing, each subject underwent the Hopkins Verbal Learning Test-Revised (HVLT-R) and the Brief Visuospatial Memory Test-Revised (BVMT-R) on Days 0, 9, and 10. Pre-dose (Day 0) and post-dose (Day 10) results on the neuropsychology tests were compared using a reliable change index to assess a change in learning of memory.

A short description of data set [2]: Trospium in cerebrospinal fluid: permeation across the blood-brain barrier (Example 1). Format: in vivo, human. The protocol: as §1
For cerebrospinal fluid sampling at each pharmacokinetics time point, about 2.5 mL of cerebral spinal fluid was collected on Day 10 at 0 hr, 2 hr, 5 hr, 7 hr, 12 hr, and 24 hr post dose.

For data set [3] the following is noted: for Trospium Ae,0-24 (amount excreted unchanged in urine) / Trospium Ae,0-24/Dose (percentage of dose excreted in urine) / Trospium CLss/F (oral clearance) / Tmax: steady state; for Tmax: Trospium Tmax.
The conditions of data set [4]: through tubular secretion and glomerular filtration; cited from earlier work.
A short description of data set [5]: Steady-state plasma pharmacokinetics of Trospium in subjects 65 years or older with overactive bladder symptoms (Example 1). To be noted: Day 10, 60 mg Trospium daily for 10 days. In kind it is in vivo, human. The protocol: as §1
The conditions of data set [6]: metabolite of Trospium; cited from earlier work.
The nature of data set [7]: clinical. To be noted: both, human, plasma, oral.
The mark [8] stands for this setting: 60 mg Trospium with 500 mg Metformin.
Setting [9] is: Glucophage/Sanctura XR regime (co-administered with 500 mg Metformin twice daily), N = 43.
[10] abbreviates: Trospium with Metformin versus Trospium alone.
The mark [11] stands for this setting: both, human, plasma, oral, 60 mg.
[12] abbreviates: column headed Glucophage ® Dosage Regime, N = 44, 60 mg Trospium daily for 10 days alone.

Read-outs that look alike come from different tables or passages of the source.

With `O=C(OC1CC2CCC(C1)[N+]21CCCC1)C(O)(c1ccccc1)c1ccccc1.[Cl-]` (stereo not shown) [Trospium, 3-(2-hydroxy-2,2-diphenylacetoxy) spiro[bicyclo[3.2.1]octane-8,1′-pyrrolidin]-1′-ium chloride], in data set [1] (Day 0 versus Day 10, one subject deteriorated on total recall in both tests), the “Net drug effect on cognition (HVLT-R, BVMT-R)” value is “no meaningful net drug effect on cognition”. For the same compound, in data set [1] (conclusion from the neuropsychology testing), the “Cognitive impairment or memory loss” value is on record as “does not cause cognitive impairment or memory loss”. Moreover, the “Trospium concentration in cerebrospinal fluid” value in data set [2] (0 hr post dose, Day 10, 60 mg Trospium daily for 10 days) is listed as less than 40 pg/mL. The “Trospium concentration in cerebrospinal fluid” value in data set [2] (5 hr post dose, Day 10, 60 mg Trospium daily for 10 days) is on record as less than 40 pg/mL. In addition, in data set [2] (24 hr post dose, Day 10, 60 mg Trospium daily for 10 days), the “Trospium concentration in cerebrospinal fluid” value is reported as less than 40 pg/mL. Moreover, in data set [2] (Day 10, 0 to 24 hr post dose, detectable range 40 pg/mL), the “Trospium in cerebrospinal fluid, all 72 samples” value is less than 40 pg/mL. In data set [2] (both sexes, human, cerebrospinal fluid, 5 hr post dose, Day 10, 60 mg Trospium daily for 10 days), this compound registered a concentration at 5 h of less than 0.04 ng/mL. Further, the “Crossing of the blood-brain barrier” value in data set [2] (conclusion from the cerebrospinal fluid levels) is on record as “does not cross the blood-brain barrier”. For the same compound, in data set [3] (setting [8]), the “Reduction of steady-state AUC0-24 of Trospium by co-administered Metformin” value is roughly 29% and the “Reduction of steady-state Cmax of Trospium by co-administered Metformin” value was “approximately 34%”. Moreover, in data set [3] (setting [9]), the “Trospium Ae,0-24 (amount excreted unchanged in urine)” value amounted to 0.281 ± 0.156 mg, the “Trospium Ae,0-24/Dose (percentage of dose excreted in urine)” value stood at 0.468 ± 0.260% and the “Trospium CLss/F (oral clearance)” value turned out to be 4830 ± 2320 L/h. Further, in data set [3] (setting [10]), the “Percentage Ratio and 90% CI of the Geometric Mean of AUC0-24 (Combination/Alone)” value is listed as 70.8 (66.2-75.7) %; the “Percentage Ratio and 90% CI of the Geometric Mean of Cmax (Combination/Alone)” value was 66.3 (61.0-72.0) %. In data set [3] (setting [11]), this compound registered an AUC(0-t) of 22.7 ng·h/mL, a Cmax of 1.87 ng/mL, a concentration at 0 hr of 0.676 ng/mL and a concentration at 1 hr of 0.831 ng/mL. In data set [3] (setting [11]), this compound came in with a concentration at 2 hr of 1.36 ng/mL, a concentration at 3 hr of 1.57 ng/mL, a concentration at 4 hr of 1.54 ng/mL and a concentration at 5 hr of 1.53 ng/mL. In data set [3] (setting [11]), this compound displayed a concentration at 6 hr of 1.66 ng/mL, a concentration at 8 hr of 1.12 ng/mL, a concentration at 10 hr of 0.878 ng/mL and a concentration at 12 hr of 0.781 ng/mL. Moreover, in data set [3] (setting [11]), the concentration at 16 hr was 0.676 ng/mL and the concentration at 24 hr is 0.655 ng/mL. Moreover, in data set [3] (both, human, plasma, oral, 60 mg, column headed Glucophage ® Dosage Regime, N = 44, 60 mg Trospium daily for 10 days alone), the Tmax was roughly 4.42 h. For the same compound, the Tmax in data set [3] (both, human, plasma, oral, Glucophage/Sanctura XR regime (co-administered with 500 mg Metformin twice daily), N = 43) is roughly 4 h. Besides, the CL renal in data set [3] (both, human, urine and plasma, oral, 60 mg) was 307 mL/min. Moreover, in data set [3] (setting [12]), the “Trospium Ae,0-24 (amount excreted unchanged in urine)” value came to 0.400 ± 0.247 mg, the “Trospium Ae,0-24/Dose (percentage of dose excreted in urine)” value was 0.667 ± 0.411% and the “Trospium CLss/F (oral clearance)” value worked out at 3510 ± 1920 L/h. Moreover, the “Reduction in percentage of Trospium dose excreted in urine on co-administration of Metformin” value in data set [3] (p value<0.0001) stood at 30%. In addition, the “Share of the absorbed dose excreted unchanged in the urine” value in data set [4] is 60%. Also, the “Trospium concentration in plasma” value in data set [5] (0 hr post dose) is 522 pg/mL. In addition, the “Trospium concentration in plasma” value in data set [5] (5 hr post dose) is 925 pg/mL. Also, the “Trospium concentration in plasma” value in data set [5] (24 hr post dose) is 649 pg/mL. The “Time of peak plasma concentration post-dosing” value in data set [5] amounted to 5 h. The AUC(0-t) in data set [5] (both sexes, human, plasma, linear trapezoidal rule, read-out: AUC0-24, steady state) worked out at 18500 ng·h/mL. In data set [5] (both sexes, human, plasma, read-out: Peak plasma concentration (Cmax)), the Cmax turned out to be 0.925 ng/mL.
For `OC1C[C@H]2CC[C@@H](C1)[N+]21CCCC1` (stereo partly shown) [azoniaspironortropanol], the “Pharmacological activity of the metabolite” value in data set [6] was “pharmacologically inactive”.
In data set [7], `CN(C)C(=N)N=C(N)N` [Metformin, N,N-dimethylimidodicarbonimidic diamide] came in with a concentration at 11 hr of 155 ng/mL and a concentration at 15 hr of 83 ng/mL.
